Test results: patent publication US20260207600A1, “METHODS OF TREATMENT WITH MYOSIN MODULATOR” (MYOKARDIA, INC., priority 2019, published 2026)
Values after ≈ are worked out from the molar mass of the structure shown. Read-outs that look alike come from different tables or passages of the source.

Assays:
[1] = system: subjects with symptomatic non-obstructive hypertrophic cardiomyopathy (nHCM); assay: […]-HCM Phase 2 randomized, double-blind, placebo-controlled, concentration-guided study; type: in vivo, human; conditions: baseline and week 16
[2] = Solubility estimates at ambient temperature; type: physicochemical; conditions: thermodynamic from solid, Form A (Lot 2-4), read-out: Solubility (estimate)
Procedure: Solubilities were calculated based on the total solvent used to give a solution; actual solubilities may be greater because of the volume of solvent portions utilized or a slow rate of dissolution. […] If dissolution occurred at the first aliquot, the value was reported as “>”.
Solubility estimates at ambient temperature were performed in 25 solvents and solvent systems using Form A (Lot 2-4) (Table 13.3).

[3] = API thermodynamic solubility; type: physicochemical; conditions: thermodynamic from solid
CYP2J2 = molecular target: T1, CYP2J2 (Homo sapiens, UniProt P51589); assay: In vitro contribution of CYP enzymes to mavacamten metabolism; type: in vitro ADME
T1 sequence (P51589 1-502): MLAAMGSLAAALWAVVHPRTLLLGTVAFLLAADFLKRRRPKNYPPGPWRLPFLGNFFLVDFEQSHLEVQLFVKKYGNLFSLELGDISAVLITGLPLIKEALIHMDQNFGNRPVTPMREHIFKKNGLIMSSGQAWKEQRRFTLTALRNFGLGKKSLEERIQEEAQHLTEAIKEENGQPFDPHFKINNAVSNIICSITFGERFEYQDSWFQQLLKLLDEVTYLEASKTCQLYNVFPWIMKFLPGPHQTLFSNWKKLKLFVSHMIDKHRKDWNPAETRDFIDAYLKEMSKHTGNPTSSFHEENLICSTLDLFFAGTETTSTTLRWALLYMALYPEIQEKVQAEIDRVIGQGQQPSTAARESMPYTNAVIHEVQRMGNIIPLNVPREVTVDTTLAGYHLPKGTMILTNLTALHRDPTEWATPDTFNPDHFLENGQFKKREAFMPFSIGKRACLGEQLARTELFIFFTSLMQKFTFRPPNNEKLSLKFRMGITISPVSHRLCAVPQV

**Q.** With `CC(C)n1c(=O)cc(N[C@@H](C)c2ccccc2)[nH]c1=O` [mavacamten, (S)-3-Isopropyl-6-((1-phenylethyl)amino)pyrimidine-2, 4(1H,3H)-dione] as the molecule, how does the “hs-cTnI, post-hoc analysis of banked serum samples” value [1] read?
**A.** confirmed the reduction in cTnI

**Q.** What about the solubility ([2]; aqueous with cosolvent or surfactant or cyclodextrin, DMSO:water (50:50)) of the same molecule?
**A.** < 1000 µg/mL

**Q.** What about the solubility ([2]; aqueous with cosolvent or surfactant or cyclodextrin, MeOH:water (50:50)) of the same molecule?
**A.** < 1000 µg/mL

**Q.** And the solubility ([2]; organic solvent or mixture, Anisole)?
**A.** < 1000 µg/mL

**Q.** And the solubility ([2]; organic solvent or mixture, DMF:CHCl3 (90:10))?
**A.** ~27000 µg/mL (≈ 98.8 mM)

**Q.** And the solubility ([2]; organic solvent or mixture, DMF:EtOAc (80:20))?
**A.** ~27000 µg/mL (≈ 98.8 mM)

**Q.** And the solubility ([2]; organic solvent or mixture, DMF:EtOH (75:25))?
**A.** ~28000 µg/mL (≈ 102 mM)

**Q.** And the solubility ([2]; organic solvent or mixture, DMF:anisole (90:10))?
**A.** ~28000 µg/mL (≈ 102 mM)

**Q.** What about the solubility ([2]; organic solvent or mixture, DMF:iPrOH (80:20)) of the same molecule?
**A.** ~43000 µg/mL (≈ 157 mM)

**Q.** What about the solubility ([2]; organic solvent or mixture, DMF:toluene (90:10)) of the same molecule?
**A.** ~42000 µg/mL (≈ 154 mM)

**Q.** What about the solubility ([2]; organic solvent or mixture, DMSO:p-dioxane (80:20)) of the same molecule?
**A.** > 42000 µg/mL

**Q.** And the solubility ([2]; organic solvent or mixture, DMSO:water (90:10))?
**A.** ~5000 µg/mL (≈ 18.3 mM)

**Q.** What about the solubility ([2]; organic solvent or mixture, HFIPA) of the same molecule?
**A.** > 60000 µg/mL

**Q.** And the solubility ([2]; organic solvent or mixture, HFIPA:water (90:10))?
**A.** ~28000 µg/mL (≈ 102 mM)

**Q.** What about the solubility ([2]; organic solvent or mixture, MIBK) of the same molecule?
**A.** < 1000 µg/mL

**Q.** And the solubility ([2]; organic solvent or mixture, MeOH)?
**A.** ~2000 µg/mL (≈ 7.32 mM)

**Q.** And the solubility ([2]; organic solvent or mixture, MeOH:water (90:10))?
**A.** < 1000 µg/mL

**Q.** What about the solubility ([2]; organic solvent or mixture, NMP:EtOAc (80:20)) of the same molecule?
**A.** ~45000 µg/mL (≈ 165 mM)

**Q.** What about the solubility ([2]; organic solvent or mixture, NMP:MeOH (75:25)) of the same molecule?
**A.** ~38000 µg/mL (≈ 139 mM)

**Q.** What about the solubility ([2]; organic solvent or mixture, NMP:toluene (80:20)) of the same molecule?
**A.** ~27000 µg/mL (≈ 98.8 mM)

**Q.** What about the solubility ([2]; organic solvent or mixture, NMP:water (90:10)) of the same molecule?
**A.** ~23000 µg/mL (≈ 84.1 mM)

**Q.** And the solubility ([2]; organic solvent or mixture, THF)?
**A.** ~2000 µg/mL (≈ 7.32 mM)

**Q.** What about the solubility ([2]; organic solvent or mixture, THF:water (90:10)) of the same molecule?
**A.** ~13000 µg/mL (≈ 47.6 mM)

**Q.** And the solubility ([2]; organic solvent or mixture, iPrOH)?
**A.** < 1000 µg/mL

**Q.** And the solubility ([2]; organic solvent or mixture, nitromethane)?
**A.** < 1000 µg/mL

**Q.** And the solubility ([2]; organic solvent or mixture, toluene)?
**A.** < 1000 µg/mL

**Q.** What about the solubility thermodynamic ([3]; DCM, organic solvent or mixture) of the same molecule?
**A.** 1100 µg/mL (≈ 4.02 mM)

**Q.** What about the solubility thermodynamic ([3]; DMF, organic solvent or mixture) of the same molecule?
**A.** ~130000 µg/mL (≈ 476 mM)

**Q.** And the solubility thermodynamic ([3]; DMSO, organic solvent or mixture)?
**A.** > 150000 µg/mL

**Q.** What about the solubility thermodynamic ([3]; EtOAc, organic solvent or mixture) of the same molecule?
**A.** 1000 µg/mL (≈ 3.66 mM)

**Q.** And the solubility thermodynamic ([3]; EtOH, organic solvent or mixture)?
**A.** 7400 µg/mL (≈ 27.1 mM)

**Q.** And the solubility thermodynamic ([3]; NMP, organic solvent or mixture)?
**A.** > 150000 µg/mL

**Q.** What about the solubility thermodynamic ([3]; acetone, organic solvent or mixture) of the same molecule?
**A.** 3300 µg/mL (≈ 12.1 mM)

**Q.** And the solubility thermodynamic ([3]; acetonitrile, organic solvent or mixture)?
**A.** 900 µg/mL (≈ 3.29 mM)

**Q.** And the solubility thermodynamic ([3]; diethyl ether, organic solvent or mixture)?
**A.** 50 µg/mL (≈ 0.183 mM)

**Q.** And the solubility thermodynamic ([3]; hexanes, organic solvent or mixture)?
**A.** < 10 µg/mL

**Q.** And the solubility thermodynamic ([3]; n-heptanes, organic solvent or mixture)?
**A.** < 10 µg/mL

**Q.** And the solubility thermodynamic ([3]; n-hexane, organic solvent or mixture)?
**A.** < 10 µg/mL

**Q.** And the solubility thermodynamic ([3]; p-dioxane, organic solvent or mixture)?
**A.** 1200 µg/mL (≈ 4.39 mM)

**Q.** What about the solubility thermodynamic ([3]; water) of the same molecule?
**A.** 10 µg/mL (≈ 0.0366 mM)

**Q.** And the “percent contribution to the metabolism of mavacamten” value (CYP2J2)?
**A.** negligible
